Measurements: patent publication US9446039B2, “Aminoheteroaryl compounds as MTH1 inhibitors” (CEMM—FORSCHUNGSZENTRUM FÜR MOLEKULARE MEDIZIN GMBH, priority 2012, dated 2016)

Legend:
Type in all cases: binding
[1] = target: T1, SW480 colon carcinoma cells lysate proteins (Homo sapiens, UniProt O00154); conditions: PreyGene ACOT7
T1 sequence (O00154 1-380): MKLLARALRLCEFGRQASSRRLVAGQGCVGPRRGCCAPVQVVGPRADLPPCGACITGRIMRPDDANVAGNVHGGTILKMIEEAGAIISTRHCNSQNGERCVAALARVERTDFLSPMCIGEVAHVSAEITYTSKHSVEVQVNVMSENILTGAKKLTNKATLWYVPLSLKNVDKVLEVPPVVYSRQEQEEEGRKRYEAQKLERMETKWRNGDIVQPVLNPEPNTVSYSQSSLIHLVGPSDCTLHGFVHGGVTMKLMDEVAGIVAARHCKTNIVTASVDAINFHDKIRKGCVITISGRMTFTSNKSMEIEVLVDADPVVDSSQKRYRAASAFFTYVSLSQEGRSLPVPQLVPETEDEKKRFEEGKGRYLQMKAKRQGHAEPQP

[2] = target: T2, SW480 colon carcinoma cells lysate proteins (Homo sapiens, UniProt P11586); conditions: PreyGene MTHFD1
T2 sequence (P11586 1-935): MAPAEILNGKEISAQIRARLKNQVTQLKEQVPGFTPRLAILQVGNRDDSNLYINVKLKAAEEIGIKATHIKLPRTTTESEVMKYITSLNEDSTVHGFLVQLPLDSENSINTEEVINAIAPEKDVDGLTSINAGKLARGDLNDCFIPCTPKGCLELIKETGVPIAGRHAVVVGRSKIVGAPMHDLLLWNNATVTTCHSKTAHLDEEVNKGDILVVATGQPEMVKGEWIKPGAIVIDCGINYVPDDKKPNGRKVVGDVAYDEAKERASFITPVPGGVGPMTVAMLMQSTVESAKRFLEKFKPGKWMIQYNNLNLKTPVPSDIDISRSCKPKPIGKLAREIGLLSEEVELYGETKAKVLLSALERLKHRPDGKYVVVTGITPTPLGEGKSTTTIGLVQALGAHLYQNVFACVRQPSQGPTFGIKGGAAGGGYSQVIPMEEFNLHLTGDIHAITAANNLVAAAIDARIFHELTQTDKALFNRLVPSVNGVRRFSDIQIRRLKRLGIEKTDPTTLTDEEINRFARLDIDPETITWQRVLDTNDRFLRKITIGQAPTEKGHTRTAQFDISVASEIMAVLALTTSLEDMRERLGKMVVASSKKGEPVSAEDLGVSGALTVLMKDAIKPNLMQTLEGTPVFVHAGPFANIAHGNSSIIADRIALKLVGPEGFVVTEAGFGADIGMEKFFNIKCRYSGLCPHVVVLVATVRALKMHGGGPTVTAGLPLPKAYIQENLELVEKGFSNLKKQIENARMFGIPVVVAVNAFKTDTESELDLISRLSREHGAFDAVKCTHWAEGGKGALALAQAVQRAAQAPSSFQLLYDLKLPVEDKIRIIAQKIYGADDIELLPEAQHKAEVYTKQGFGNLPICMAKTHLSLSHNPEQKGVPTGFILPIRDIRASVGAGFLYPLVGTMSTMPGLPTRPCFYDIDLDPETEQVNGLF

[3] = target: T3, SW480 colon carcinoma cells lysate proteins (Homo sapiens, UniProt P52209); conditions: PreyGene PGD
T3 sequence (P52209 1-483): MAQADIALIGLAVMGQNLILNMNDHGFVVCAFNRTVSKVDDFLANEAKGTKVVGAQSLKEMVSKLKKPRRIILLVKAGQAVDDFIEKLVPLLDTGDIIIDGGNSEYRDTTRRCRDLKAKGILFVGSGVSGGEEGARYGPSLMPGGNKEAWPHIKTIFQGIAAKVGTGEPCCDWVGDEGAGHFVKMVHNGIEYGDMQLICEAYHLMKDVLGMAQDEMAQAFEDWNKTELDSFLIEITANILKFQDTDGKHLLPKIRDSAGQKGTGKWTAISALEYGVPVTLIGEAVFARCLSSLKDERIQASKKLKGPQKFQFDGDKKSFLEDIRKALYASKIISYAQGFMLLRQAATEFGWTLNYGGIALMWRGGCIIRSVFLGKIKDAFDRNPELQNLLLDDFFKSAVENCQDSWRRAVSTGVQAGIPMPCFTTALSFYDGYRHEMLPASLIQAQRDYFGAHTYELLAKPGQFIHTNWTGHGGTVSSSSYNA

[4] = target: SW480 colon carcinoma cells lysate proteins (Homo sapiens, UniProt P62942); conditions: PreyGene FKBP1A; SW480 cells
Sequence of SW480 colon carcinoma cells lysate proteins (Homo sapiens, UniProt P62942) (P62942 whole entry): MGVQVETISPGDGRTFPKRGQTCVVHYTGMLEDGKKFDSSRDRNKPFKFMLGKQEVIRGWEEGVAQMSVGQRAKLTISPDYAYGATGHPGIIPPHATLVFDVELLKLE

## C[C@H](Oc1cc(-c2cnn(C3CCNCC3)c2)cnc1N)c1c(Cl)ccc(F)c1Cl [(5)-crizotinib]
[1]
  AvgP: 0.2785
  SC.Exp. 1-1: 1
  SC.Exp. 1-2: 2
  SC.Exp. 2-1: 0
  SC.Exp. 2-2: 0
  Sum (SC.Exp.): 3
[2]
  AvgP: 0.2666
  SC.Exp. 1-1: 2
  SC.Exp. 1-2: 2
  SC.Exp. 2-1: 0
  SC.Exp. 2-2: 0
  Sum (SC.Exp.): 4
[3]
  AvgP: 0.3262
  SC.Exp. 1-1: 4
  SC.Exp. 1-2: 2
  SC.Exp. 2-1: 0
  SC.Exp. 2-2: 0
  Sum (SC.Exp.): 6
[4]
  AvgP: 0
  SC.Exp. 1-1: 1
  SC.Exp. 1-2: 1
  SC.Exp. 2-1: 1
  SC.Exp. 2-2: 0
  SC.Exp. Sum: 3
